According to patent US5420334A, “Inhibitors of farnesyl-protein transferase” (Merck & Co., Inc., priority 1994, dated 1995):

Molecular target: T1, bovine brain FPTase (Bos taurus, UniProt P29702+P49355)
T1 construct: Famesyl-protein transferase (FPTase) from bovine brain; from tissue; host or cells: bovine brain, partially purified (DEAE-Sephacel, N-octyl agarose, mono Q)
Experiment: In vitro inhibition of Ras farnesyl-protein transferase (FPTase)
Format: biochemical
Conditions: Ras-CVLS, [3H]FPP, concentration giving 50% inhibition, read-out: IC50, inhibition of RAS farnesylation
Experimental: The intrinsic famesyl-protein transferase (FPTase) activity of representative compounds of this invention was measured by the assay as described below:
Famesyl-protein transferase (FPTase) from bovine brain was chromatographed on DEAE-Sephacel (Pharmacia, 0-0.8M NaCl gradient elution), N-octyl agarose (Sigma, 0-0.6M NaCl gradient elution), and a mono Q HPLC column (Pharmacia, 0-0.3M NaCl gradient). Ras-CVLS (Cys-Val-Leu-Ser) at […], […] [^3 H]FPP, and the indicated compounds were incubated with this partially purified enzyme preparation. FPTase inhibition data is a measurement of the ability of the test compound to inhibit Ras farnesylation in vitro.
Famesyl-protein transferase (FPTase) from bovine brain was chromatographed on DEAE-Sephacel (Pharmacia, 0-0.8M NaCl gradient elution), N-octyl agarose (Sigma, 0-0.6M NaCl gradient elution), and a mono Q HPLC column (Pharmacia, 0-0.3M NaCl gradient). Ras-CVLS at 3.5 µM, 0.25 µM [3H]FPP, and the indicated compounds were incubated with either a partially purified bovine enzyme preparation or a recombinant human enzyme preparation. The FPTase data presented below in Table 1 reflects the ability of the test compound to inhibit RAS famesylation in vitro, as described in Pompliano, et al., Biochemistry 31, 3800 (1992).
*(IC50 is the concentration of the test compound which gives 50%
inhibition of bovine brain FPTase under the described assay conditions)

Row | Compound | IC50 [µM]
1 | C/C(=C\Cc1c(O)cc(C)c(C=O)c1O)[C@H](C[C@@]1(C)[C@H](C)C(=O)CC[C@@H]1C)OC(=O)CC(C)C [Compound 6, 3-[5-[1(R),2(S),6(S)-trimethyl-5-oxocyclohexyl]-3-methyl-4(S)-[3-methylbutanoyloxy]-2-pentenyl]-2,4-dihydroxy-6-methylbenzaldehyde] | 4.6
2 | C/C(=C\Cc1c(O)c(Cl)c(C)c(C=O)c1O)[C@H](C[C@@]1(C)[C@H](C)C(=O)CC[C@@H]1C)OC(=O)CC(C)C [Compound 7] | 6.5
3 | C/C(=C\Cc1c(O[Si](C)(C)C(C)(C)C)cc(C)c(C=O)c1O)CC[C@@]1(C)[C@H](C)C(=O)CC[C@@H]1C [Compound 19] | > 140
4 | CC(=O)O[C@@H]1CC(=O)[C@@H](C)[C@](C)(/C=C/C(C)=C/Cc2c(O)cc(C)c(C=O)c2O)[C@H]1C [Compound 3] | 5.6
5 | COc1cc(C)c(C=O)c(O)c1C/C=C(C)/C=C/[C@@]1(C)[C@H](C)C(=O)CC[C@@H]1C [Compound 12] | 31
6 | CC(=O)O[C@@H]1CC(=O)[C@@H](C)[C@](C)(/C=C/C(C)=C/Cc2c(O)c(Cl)c(C)c(C=O)c2O)[C@H]1C [Compound 2] | 2.8
7 | CC(/C=C/[C@@]1(C)[C@H](C)C(=O)C=C[C@@H]1C)=C\Cc1c(O)c(Cl)c(C)c(C=O)c1O [Compound 5] | 15
8 | COCOc1cc(C)c(C=O)c(OCOC)c1C/C=C(\C)CC[C@@]1(C)[C@H](C)C(=O)CC[C@@H]1C [Compound 21] | > 50

Continued, values first:

Row | IC50 [µM] | Compound
9 | > 140 | COC(=O)c1c(C)cc(O)c(C/C=C(\C)CC[C@@]2(C)[C@H](C)C(=O)CC[C@@H]2C)c1O [Compound 20]
10 | 6.5 | CC(=O)Oc1cc(C)c(C=O)c(OC(C)=O)c1C/C=C(\C)CC[C@@]1(C)[C@H](C)C(=O)CC[C@@H]1C [Compound 11]
11 | > 140 | C/C(=C\Cc1c(O)cc(C)c(C)c1O)CC[C@@]1(C)[C@H](C)[C@H](O)CC[C@@H]1C [Compound 17]
12 | 6.5 | CC(/C=C/[C@@]1(C)[C@H](C)C(=O)CC[C@@H]1C)=C\Cc1c(O)cc(C)c(C=O)c1O [Compound 4]
13 | 20 | C/C(=C\Cc1c(O)cc(C)cc1O)CC[C@@]1(C)[C@H](C)C(=O)CC[C@@H]1C [Compound 24]
14 | 101 | C/C(=C\Cc1c(O)cc(C)c(CO)c1O)CC[C@@]1(C)[C@H](C)[C@H](O)CC[C@@H]1C [Compound 15]
15 | 30.7 | C/C(=C\Cc1c(O)cc(C)c(C)c1O)CC[C@@]1(C)[C@H](C)C(=O)CC[C@@H]1C [Compound 16]
16 | 2.2 | CCC(=O)O[C@@H](C[C@@]1(C)[C@H](C)C(=O)CC[C@@H]1C)/C(C)=C/Cc1c(O)cc(C)c(C=O)c1O [Compound 8]
17 | 13 | CC(=O)O[C@@H](C[C@@]1(C)[C@H](C)C(=O)CC[C@@H]1C)/C(C)=C/Cc1c(O)cc(C)c(C=O)c1O [Compound 9]
18 | 0.7 | C/C(=C\Cc1c(O)cc(C)c(C=O)c1O)CC[C@@]1(C)[C@H](C)C(=O)CC[C@@H]1C [Compound 1, 3-[5-[1(R),2(S),6(S)-trimethyl-5-oxocyclohexyl]-3-methyl-2-pentenyl]-2,4-di hydroxy-6-methylbenzaldehyde]
19 | 18.6 | Cc1cc(O)c(CCC(C)CC[C@@]2(C)[C@H](C)C(=O)CC[C@@H]2C)c(O)c1C (some centres unmarked) [Compound 14]
20 | 2 | COc1cc(C)c(C=O)c(O)c1C/C=C(\C)CC[C@@]1(C)[C@H](C)C(=O)CC[C@@H]1C [Compound 13, 3-[5-[1(R),2(S),6(S)-trimethyl-5-oxocyclohexyl]-3-methyl-2-pentenyl]-2-hydroxy-4-methoxy-6-methylbenzaldehyde]
21 | 75 | C/C(=C\Cc1c(O)cc(C)c(CO)c1O)CC[C@@]1(C)[C@H](C)C(=O)CC[C@@H]1C [Compound 18]

Test system: Ras famesylation
Experiment: not given
Conditions: cited from earlier work

Row | Compound | Inhibition of Ras famesylation in vivo
22 | CC[C@H](C)C(=O)O[C@H]1CCC=C2C=C[C@H](C)[C@H](CC[C@@H]3C[C@@H](O)CC(=O)O3)[C@H]21 [compactin] | Inhibition of Ras famesylation in vivo has been demonstrated
23 | CC[C@H](C)C(=O)O[C@H]1C[C@@H](C)C=C2C=C[C@H](C)[C@H](CC[C@@H]3C[C@@H](O)CC(=O)O3)[C@H]21 [lovastatin] | Inhibition of Ras famesylation in vivo has been demonstrated
